In paper PMC7979765, “trans-Translation inhibitors bind to a novel site on the ribosome and clear Neisseria gonorrhoeae in vivo” (Nature Communications, 2021):
Converted amounts (≈) assume the structure as drawn. “And” between values parts separate entries of the source, which are not always exact repeats. Equal values may be shown once. Read-outs that look alike come from different tables or passages of the source.

Columns and labels:
[1] = test system: Salmonella typhimurium strains TA98 and TA100; format: cell-based
Experimental: The Ames assay was performed at SRI Biosciences, following the standard protocols established there[55]–[57]. In brief, samples were evaluated for their ability to induce genetic damage using the plate incorporation method with Salmonella typhimurium strains TA98 and TA100 with and without a metabolic activation mixture containing 10% Aroclar-1254-induced rat-liver microsomes (S9). MBX-4132 was tested from a 5 mg/mL DMSO stock solution (the solubility limit), which provided plate concentrations up to 500 µg/plate, with serial dilutions accessing doses as low as 5 µg/plate. MBX-4132 precipitated at the two highest dose levels (500 and 100 µg/plate), but at 50 µg/plate, no precipitation was observed. […] Test articles were considered mutagenic when the mean number of revertant colonies increased in a dose-dependent manner. Some cytotoxicity was observed, but sufficient colonies were formed to allow analysis. […] Data for 2-nitrofluorene and sodium azide (positive controls) and DMSO (negative control) were included for reference.

[2] = Liver microsome stability, murine; format: in vitro ADME, mouse; conditions: murine liver microsomes
Experimental: To examine potential for first-pass metabolism of analogs in the liver, the stability of analogs in the presence of liver microsome preparations (Eurofins Discovery for human, dog and rat; Xenotech for mouse) was measured using the method of Kuhnz, et al.[50]. for murine studies and Oback for the dog, human and rat studies. The amount of parent compound remaining after incubation with microsomes in the presence of NADPH over a 30 min time range was measured using a reverse-phase liquid chromatography/mass spectroscopy method that was customized for each compound. Half-lives were calculated using linear regression analysis of several time points.

[3] = Aqueous solubility (nephelometric); format: physicochemical
[4] = test system: N. gonorrhoeae ATCC 49226; assay: Time-kill assay
[5] = test system: Neisseria gonorrhoeae; assay: MIC, microbroth dilution, G77L medium; format: cell-based
[6] = test system: N. gonorrhoeae strain H041; assay: In vivo efficacy in the gonorrhea mouse model; conditions: for mouse cfu: individual mice, 2.00E+01 = no CFU/mL recovered, limit of detection

## [N-]=[N+]=[N-].[Na+] [Sodium Azide, reference compound]
[1]; TA100, 5 µg/plate, no S9
  Average Mean Revertants/plate: 2029.0 Revertants/plate
[1]; TA100, 5 µg/plate, no S9, replicates
  Mean Revertants/plate: 1978 Revertants/plate and 2032 Revertants/plate and 2077 Revertants/plate
[1]; TA100, without S9, 5 µg/plate
  Mean Revertants/plate: 2029.0

## O=C(Nc1nnc(-c2ccc(F)cc2)o1)c1ccccc1 [MBX-C4227]
[2]; average of replicates
  Average MLMS t½: <5 min
[2]; individual replicates
  MLMS t½: <5 min
[3]
  Average solubility: 50 µM
[3]; single replicates
  Solubility: 50 µM (≈ 14.2 µg/mL)

## O=[N+]([O-])c1ccc2c(c1)Cc1ccccc1-2 [2-Nitrofluorene, reference compound]
[1]; TA98, 5 µg/plate, no S9
  Average Mean Revertants/plate: 1331.3 Revertants/plate
[1]; TA98, 5 µg/plate, no S9, replicates
  Mean Revertants/plate: 1220 Revertants/plate and 1245 Revertants/plate and 1529 Revertants/plate
[1]; TA98, without S9, 5 µg/plate
  Mean Revertants/plate: 1331.3

## CO/N=C(\C(=O)N[C@@H]1C(=O)N2C(C(=O)O)=C(CSc3nc(=O)c(=O)[nH]n3C)CS[C@H]12)c1csc(N)n1 [CRO, reference compound]
[4]; 1X MIC, 0 h
  AVE CFU/ml: 9800000 CFU/ml
[4]; 1X MIC, 1 h
  AVE CFU/ml: 8.20E+06 CFU/ml and 8200000 CFU/ml
  CFU/mL, replicates 1-3: 8200000 CFU/mL and 8000000 CFU/mL and 8400000 CFU/mL
[4]; 1X MIC, 2 h
  AVE CFU/ml: 3.47E+06 CFU/ml and 3466667 CFU/ml
  CFU/mL, replicates 1-3: 3800000 CFU/mL and 3200000 CFU/mL and 3400000 CFU/mL
[4]; 1X MIC, 4 h
  AVE CFU/ml: 60666.7 CFU/ml and 6.07E+04 CFU/ml
  CFU/mL, replicates 1-3: 60000 CFU/mL and 58000 CFU/mL and 64000 CFU/mL
[4]; 1X MIC, 6 h
  AVE CFU/ml: 27333.3 CFU/ml and 2.73E+04 CFU/ml
  CFU/mL, replicates 1-3: 24000 CFU/mL and 32000 CFU/mL and 26000 CFU/mL
[4]; 1X MIC, 8 h
  AVE CFU/ml: 5733.33 CFU/ml and 5.73E+03 CFU/ml
  CFU/mL, replicates 1-3: 5800 CFU/mL and 5400 CFU/mL and 6000 CFU/mL
[4]; 1X MIC, 24 h
  AVE CFU/ml: 2466667 CFU/ml and 2.47E+06 CFU/ml
  CFU/mL, replicates 1-3: 2400000 CFU/mL and 2200000 CFU/mL and 2800000 CFU/mL
[4]; 4X MIC, 0 h
  AVE CFU/ml: 9800000 CFU/ml
[4]; 4X MIC, 1 h
  AVE CFU/ml: 7.67E+06 CFU/ml and 7666667 CFU/ml
  CFU/mL, replicates 1-3: 7800000 CFU/mL and 7200000 CFU/mL and 8000000 CFU/mL
[4]; 4X MIC, 2 h
  AVE CFU/ml: 3.87E+06 CFU/ml and 3866667 CFU/ml
  CFU/mL, replicates 1-3: 3400000 CFU/mL and 4000000 CFU/mL and 4200000 CFU/mL
[4]; 4X MIC, 4 h
  AVE CFU/ml: 40000 CFU/ml and 4.00E+04 CFU/ml
  CFU/mL, replicates 1-3: 36000 CFU/mL and 42000 CFU/mL (2×)
[4]; 4X MIC, 6 h
  AVE CFU/ml: 5266.67 CFU/ml and 5.27E+03 CFU/ml
  CFU/mL, replicates 1-3: 4400 CFU/mL and 5200 CFU/mL and 6200 CFU/mL
[4]; 4X MIC, 8 h
  AVE CFU/ml: 1066.67 CFU/ml and 1.07E+03 CFU/ml
  CFU/mL, replicates 1-3: 1400 CFU/mL and 800 CFU/mL and 1000 CFU/mL
[4]; 4X MIC, 24 h
  AVE CFU/ml: 0 CFU/ml and 0.00E+00 CFU/ml
  CFU/mL, replicates 1-3: 0 CFU/mL
[4]; Neisseria gonorrhoeae, ATCC49226
  MIC: 0.008 µg/mL (≈ 0.0144 µM)

## O=C(Nc1nnc(-c2ccc(F)cc2)o1)c1ccccc1 [MBXC1-4227]
[5]; Neisseria gonorrhoeae ATCC 49226, source data, individual replicates
  MIC: 0.8852 µg/mL and 0.4426 µg/mL

## Nc1ccc2cc3ccccc3cc2c1 [2-Aminoanthracene, reference compound]
[1]; TA98, 2 µg/plate, + S9
  Average Mean Revertants/plate: 1206.7 Revertants/plate
[1]; TA98, 2 µg/plate, + S9, replicates
  Mean Revertants/plate: 1086 Revertants/plate and 1134 Revertants/plate and 1400 Revertants/plate
[1]; TA98, + S9, 2 µg/plate
  Mean Revertants/plate: 1206.7
[1]; TA100, 2 µg/plate, + S9
  Average Mean Revertants/plate: 1438.7 Revertants/plate
[1]; TA100, 2 µg/plate, + S9, replicates
  Mean Revertants/plate: 1428 Revertants/plate and 1389 Revertants/plate and 1499 Revertants/plate
[1]; TA100, + S9, 2 µg/plate
  Mean Revertants/plate: 1438.7

## CNC(C)C1CCC(N)C(OC2C(N)CC(N)C(OC3OCC(C)(O)C(NC)C3O)C2O)O1 (stereo not shown) [gentamicin, reference compound]
[6]; Day 5, GEN, listed as GEN
  mouse cfu: 2.00E+01 CFU/mL (19×) and 3.11E+03 CFU/mL
[6]; Day 6, GEN, listed as GEN
  mouse cfu: 2.00E+01 CFU/mL (19×) and 6.14E+04 CFU/mL
[6]; Day 7, GEN, listed as GEN
  mouse cfu: 2.00E+01 CFU/mL (19×) and 3.22E+05 CFU/mL
[6]; Day 8, GEN, listed as GEN
  mouse cfu: 2.00E+01 CFU/mL (19×) and 5.02E+06 CFU/mL
[6]; Day -1, GEN, listed as GEN
  mouse cfu: 1.75E+06 CFU/mL and 2.50E+03 CFU/mL and 5.59E+05 CFU/mL and 1.30E+04 CFU/mL and 2.52E+05 CFU/mL and 1.60E+05 CFU/mL and 6.90E+06 CFU/mL and 1.04E+06 CFU/mL and 2.76E+04 CFU/mL and 2.76E+06 CFU/mL and 1.05E+03 CFU/mL and 2.80E+06 CFU/mL and 2.25E+06 CFU/mL and 3.27E+05 CFU/mL and 1.99E+05 CFU/mL and 1.82E+05 CFU/mL and 1.55E+06 CFU/mL and 1.50E+06 CFU/mL and 9.59E+05 CFU/mL and 4.61E+03 CFU/mL
[6]; GEN, individual mice 21-40, 1 = cleared on the day, 0 = not cleared, listed as GEN
  mice cleared per day: cleared flag: 1 and 0
[6]; GEN, individual mice 21-40, Day 8 with flag 0 = not cleared, listed as GEN
  Day (mice cleared per day: day on which the mouse was cleared): 1 and 4 and 8 and 3 and 5 and 2
[6]; daily intraperitoneal injection 48 mg/kg for 5 days, N. gonorrhoeae H041
  treated mice with infection cleared: 95%

## O=C(Nc1nnc(-c2ccc(F)cc2)o1)N1CCc2ccccc2C1 [MBX4132]
[5]; strain MMX 6744, single data point, Micromyx
  MIC: 0.27 µg/mL (≈ 0.798 µM)
[5]; strain MMX 6746, single data point, Micromyx
  MIC: 0.14 µg/mL (≈ 0.414 µM)
[5]; strain MMX 6752, single data point, Micromyx
  MIC: 0.27 µg/mL (≈ 0.798 µM)
[5]; strain MMX 6753, single data point, Micromyx
  MIC: 0.14 µg/mL (≈ 0.414 µM)
[5]; strain MMX 6757, single data point, Micromyx
  MIC: 0.07 µg/mL (≈ 0.207 µM)
[5]; strain MMX 6758, single data point, Micromyx
  MIC: 0.27 µg/mL (≈ 0.798 µM)
[5]; strain MMX 6762, single data point, Micromyx
  MIC: 0.27 µg/mL (≈ 0.798 µM)
[5]; strain MMX 6767, single data point, Micromyx
  MIC: 0.14 µg/mL (≈ 0.414 µM)
[5]; strain MMX 6771, single data point, Micromyx
  MIC: 0.14 µg/mL (≈ 0.414 µM)
[5]; strain MMX 6793, single data point, Micromyx
  MIC: 0.14 µg/mL (≈ 0.414 µM)
[5]; strain MMX 6797, single data point, Micromyx
  MIC: 0.14 µg/mL (≈ 0.414 µM)
[5]; strain MMX 6803, single data point, Micromyx
  MIC: 0.27 µg/mL (≈ 0.798 µM)
[5]; strain MMX 6812, single data point, Micromyx
  MIC: 0.27 µg/mL (≈ 0.798 µM)
[5]; strain MMX 6818, single data point, Micromyx
  MIC: 0.27 µg/mL (≈ 0.798 µM)
[5]; strain MMX 6819, single data point, Micromyx
  MIC: 0.14 µg/mL (≈ 0.414 µM)
[5]; strain MMX 6879, single data point, Micromyx
  MIC: 0.14 µg/mL (≈ 0.414 µM)
[5]; strain MMX 6921, single data point, Micromyx
  MIC: 0.53 µg/mL (≈ 1.57 µM)
[5]; strain MMX 6922, single data point, Micromyx
  MIC: 0.53 µg/mL (≈ 1.57 µM)
[5]; strain MMX 6983, single data point, Micromyx
  MIC: 0.53 µg/mL (≈ 1.57 µM)
[5]; strain MMX 6989, single data point, Micromyx
  MIC: 0.14 µg/mL (≈ 0.414 µM)
[5]; strain MMX 6990, single data point, Micromyx
  MIC: 0.14 µg/mL (≈ 0.414 µM)
[5]; strain MMX 6992, single data point, Micromyx
  MIC: 0.14 µg/mL (≈ 0.414 µM)
[5]; strain MMX 6996, single data point, Micromyx
  MIC: 0.27 µg/mL (≈ 0.798 µM)
[5]; strain MMX 6998, single data point, Micromyx
  MIC: 0.53 µg/mL (≈ 1.57 µM)
[5]; strain MMX 7002, single data point, Micromyx
  MIC: 0.27 µg/mL (≈ 0.798 µM)
[5]; strain MMX 7005, single data point, Micromyx
  MIC: 0.03 µg/mL (≈ 0.0887 µM)
[5]; strain MMX ATCC 49226, single data point, Micromyx
  MIC: 0.27 µg/mL (≈ 0.798 µM)
